US6924305B2, “Diazocine derivatives and their use as tryptase inhibitors” (Altana Pharma AG, priority 2001, dated 2005)

target: human tryptase; experiment: Inhibition of human tryptase (apparent dissociation constant, chromogenic substrate tos-Gly-Pro-arg-pNA); format: biochemical; settings: pKiapp = -log Kiapp (mol/l), in presence of substrate, heparin 0.1-50 μg/ml, equilibrium conditions
Description: The documented pathophysiological effects of mast cell tryptase are caused directly by the enzymatic activity of the protease. Accordingly, they are reduced or blocked by inhibitors which inhibit the enzymatic activity of the tryptase. A suitable measure for the affinity of a reversible inhibitor to the target protease is the equilibrium dissociation constant K1 of the enzyme-inhibitor complex. This K1 value can be determined via the effect of the inhibitor on the tryptase-induced cleavage of a chromogenic peptide-p-nitroanilide substrate or a fluorogenic peptide-aminomethylcoumarin substrate.
The dissociation constants for the tryptase-inhibitor complexes are determined under equilibrium conditions in accordance with the general proposals of Bieth (Bieth J G, Pathophysiological Interpretation of kinetic constants of protease inhibitors, Bull. Europ. Physiopath. Resp. 16:183-195, 1980) and the methods of Sommerhoff et al. (Sommerhoff C P et al., A Kazal-type inhibitor of human mast cell tryptase: Isolation from the medical leech Hirudo medicinalis, characterization, and sequence analysis, Biol. Chem. Hoppe-Seyler 375: 685-694, 1994).
Human tryptase is isolated from lung tissue or prepared recombinantly; the specific activity of the protease, determined by titration, is usually greater than 85% of the theoretical value. In the presence of heparin (0.1-50 μg/ml) for stabilizing the protease, constant amounts of the tryptase are incubated with increasing amounts of the inhibitors. After an equilibrium between the reaction partners has formed, the remaining enzyme activity after addition of the peptide-p-nitroanilide substrate tos-Gly-Pro-arg-pNA is determined and the cleavage of the latter is monitored at 405 nm for 3 min. Alternatively, the remaining enzymatic activity can also be determined using fluorogenic substrates. The apparent dissociation constants Klapp (i.e. in the presence of substrate) are subsequently determined by adapting the enzyme rates to the general equation for reversible inhibitors (Morrison J F, Kinetics of the reversible inhibition of enzyme-catalyzed reactions by tight-binding inhibitors, Biochim. Biophys. Acta 185, 269-286, 1969) using non-linear regression: V1/V0=1−{Et+It+Klapp−(Et+ItKlapp)^2−4EtIt]^1/2}/2Et V1 and V0 are the rates in the presence and absence, respectively, of the inhibitor, and Et and It are the tryptase and inhibitor concentrations, respectively.
The apparent dissociation constants determined for the compounds according to the invention are shown in Table A below, where the numbers of the compounds correspond to the numbers of the compounds in the examples [pKlapp=−logKlapp (mol/l)].

**Q.** With `COC(=O)C1CC(NC(=O)CN2CCC(=O)N(CC(=O)NC3CC(C(=O)OC)N(C(=O)CCc4ccc(CN)cc4)C3)CCC2=O)CN1C(=O)CCc1ccc(CN)cc1.Cl.Cl` (centres unmarked) [Compound 1, 1,5-Bis{N,N′-[1-(3-(4-aminomethylphenyl)propionyl)-2-methoxycarbonylpyrrolidin-4-yl]aminocarbonylmethyl}perhydro-1,5-diazocine-2,6-dione dihydrochloride] as the molecule, how does the pKiapp read?
**A.** 9.05

**Q.** `Cl.Cl.NCc1ccc(CCC(=O)N2CC(NC(=O)CN3CCC(=O)N(CC(=O)NC4CC(C(=O)O)N(C(=O)CCc5ccc(CN)cc5)C4)CCC3=O)CC2C(=O)O)cc1` (centres unmarked) [Compound 3, 1,5-Bis{N,N′-[1-(3-(4-aminomethylphenyl)proplonyl)-2-carboxypyrrlidin-4-yl]-aminocarbonylmethyl}perhydro-1,5-diazocine-2,6-dine dihydrochloride] was tested. Which pKiapp did it give?
**A.** 7.43

**Q.** How did the pKiapp turn out when `Cl.Cl.NCc1ccc(CCC(=O)N2CC(NC(=O)CN3CCC(=O)N(CC(=O)NC4CC(C(=O)OCc5ccccc5)N(C(=O)CCc5ccc(CN)cc5)C4)CCC3=O)CC2C(=O)OCc2ccccc2)cc1` (centres unmarked) [Compound 2, 1,5-Bis{N,N′-[1-(3-(4-aminomethylphenyl)propionyl)-2-benzyloxycarbonylpyrrolidin-4-yl]aminocarbonylmethyl}perhydro-1,5-diazocine-2,6-dione dihydrochloride] was run?
**A.** 9.22

**Q.** For `Cl.Cl.NCc1ccc(CCC(=O)N2CC(NC(=O)CN3CCC(=O)N(CC(=O)NC4CC(C(N)=O)N(C(=O)CCc5ccc(CN)cc5)C4)CCC3=O)CC2C(N)=O)cc1` (centres unmarked) [Compound 5, 1,5-Bis{N,N′-[1-(3-(4-aminomethylphenyl)proplonyl)-2-aminocarbonylpyrrolidin-4-yl]-aminocarbonylmethyl}perhydro-1,5-diazocine-2,6-dione dihydrochloride], which pKiapp is on record?
**A.** 8.80

**Q.** With `Cl.Cl.NCc1ccc(CCC(=O)N2CC(NC(=O)CN3CCC(=O)N(CC(=O)NC4CC(C(=O)NC5CC5)N(C(=O)CCc5ccc(CN)cc5)C4)CCC3=O)CC2C(=O)NC2CC2)cc1` (centres unmarked) [Compound 4, 1,5-Bis{N,N′-[1-(3-(4-aminomethylphenyl)propionyl)-2-cyclopropylaminocarbonyl-pyrrolidin-4-yl]aminocarbonylmethyl}perhydro-1,5-diazocine-2,6-dione dihydrochloride] as the molecule, how does the pKiapp read?
**A.** 9.66
